Test results from patent US20260174778A1, “SULFONAMIDE COMPOUND, AND PREPARATION METHOD THEREFOR AND USE THEREOF” (SHANGHAI HENLIUS BIOTECH, INC., priority 2023, published 2026).
Read-outs that look alike come from different tables or passages of the source.

Tests used:
[1] = tested on: breast cancer cell line ZR-75-1; assay: Inhibition of proliferation of breast cancer cell line ZR-75-1 (CellTiter-Glo); type: cell-based; conditions: Homo sapiens, 240 h, proliferation of ZR-75-1 cells, 10 days of incubation, read-out: IC50 (KAT6A)
Description: Test Example 1: Experiment for Determining Inhibitory Effects of Compounds on Proliferation of Breast Cancer Cell Line ZR-75-1
ATP is an indicator of the metabolism of living cells. The CellTiter-Glo® Luminescent Cell Viability Assay is a homogeneous assay method for determining the number of viable cells by quantifying ATP.
• 1) ZR-75-1 (Cell Bank of Chinese Academy of Sciences, TCHul26) • 2) RPMI-1640 medium (Gibco, 11875-093) • 3) Fetal Bovine Serum, New Zealand (Gibco,10091-148) • 4) Penicillin-streptomycin (10,000 U/mL) (Gibco, 15140-122) • 5) Trypsin-EDTA (0.25%), containing phenol red (Gibco, 25200-072) • 6) DPBS (Shanghai BasalMedia, B210KJ) • 7) Corning® 96-well Clear Flat Bottom Ultra-Low Attachment Microplate (Corning, Cat. No. 3474) • 8) 330 μL 96 Holes Deep Well Plate, transparents, 96 Round Holes, V-shaped Bottom, Low Retention (Stellar Scientific, DP33VR-9-NS) • 9) Corning® 96-well solid white flat-bottom polystyrene microplate (Corning, Cat. No. 3917) • 10) CellTiter-Glo® Luminescent Cell Viability Assay (Promega, G7573) • 11) Countstar® BioMed automatic cell counter • 12) Trypan blue solution, 0.4% (Gibco, Cat. No. 15250061) • 13) 37° C. constant-temperature incubator (Thermo, FORMA STERI-CYCLE i160 LK) • 14) Biosafety cabinet (Thermo, 1379)
• 1) The formula of the complete medium for ZR-75-1 was as follows: 500 mL RPMI-1640+10% FBS+1% penicillin-streptomycin. • 2) Thirty minutes before cell plating, the complete medium, serum, trypsin, and DPBS for use in ZR-75-1 cell culture were pre-warmed in a water bath at 37° C. • 3) The ZR-75-1 cells were taken out of the incubator, and the medium was removed by pipetting. The cells were rinsed once with 5 mL of DPBS, and then the DPBS was discarded. • 4) The cells in the T75 culture flask were digested with 1-3 mL of (0.25%) trypsin-EDTA. After the trypsin was added, the culture flask was incubated in an incubator at 37° C. for 2-5 min, and dispersion was confirmed by microscopic examination. Tapping or agitating the culture flask was avoided to prevent disturbing the cells, which might cause cell clumping. • 5) 9 mL of the complete medium was added to terminate the digestion, thus forming a cell suspension, which was then mixed well by pipetting. • 6) Cell suspension counting: 20 μL of the cell suspension was pipetted and diluted with 20 µL of the 0.4% trypan blue solution (Gibco, Cat. No. 15250061). The total cell count and the percentage of cell viability were determined using the Countstar® BioMed automatic cell counter. Only cells with a cell viability of no less than 95% were used for the experiment. • 7) The concentration of the cell suspension was adjusted to 2000 cells/well, and the cell suspension was added to a 96-well cell culture plate at 80 μL/well. Treatment of Cells with Compounds • 1) Twenty-four hours after cell plating, the cell plate was taken out. • 2) Each compound was prepared with a complete medium. The stock solution was a 10 mM solution in DMSO, which was first diluted with the medium to 100 μM, then diluted to 1 μM, and finally subjected to a 5-fold serial dilution across a total of 9 concentration gradients. • 3) 20 μL of the compound diluted with the medium was added to each well of the cell culture plate, which already contained 80 μL of the medium. The final concentration started at 200 nM, followed by a 5-fold serial dilution across a total of 9 concentration gradients. Two replicate wells were set for each compound, and each plate could be used to test 3 compounds, with the DMSO content controlled within 0.5%. • 4) The culture medium was replenished once every three days with a complete medium containing the same concentration of the test compound, with 20 μL/well added each time.
After 10 days of incubation with the compound, the cell culture plate was taken out, and the CellTiter-Glo® reagent was added at 50 μL/well. […]

[2] = Pharmacokinetics in SD (Sprague Dawley) rats; type: in vivo; conditions: rat, plasma, female SD rats; for half-life: read-out: T1/2 (half-life) (converted)
Protocol: Test Example 3: Determination of Pharmacokinetic Data of Compounds in SD (Sprague Dawley) Rats
The pharmacokinetic characteristics of some of the compounds of the present disclosure were evaluated by a pharmacokinetic experiment in SD rats.
Female SD rats aged 6-8 weeks from Shanghai Jihui Laboratory Animal Care Co., Ltd. were selected. The test animals were fasted overnight before administration, and feeding was resumed 4 h after administration. The compounds were dissolved in 5% DMSO+5% Tween 80+90% normal saline. For a single intravenous administration, the administration dose was 1 mg/kg, and the administration volume was 2 mL/kg. For a single intragastric administration, the administration dose was 2 mg/kg, and the administration volume was 10 mL/kg. Blood was collected at 0.083 h (for intravenous administration only), 0.25 h, 0.5 h, 1 h, 2 h, 4 h, 8 h, and 24 h after administration. At each indicated time point, about 150 μL of blood sample was collected from each rat via the vein and placed into an EDTA-K2 tube. Each sample was centrifuged (2000 g, 4° C., 5 min) within 15 min after sample collection to obtain plasma, which was then stored at −70° C. until analysis. The concentration of the corresponding test compound in the SD rat plasma was determined using UPLC-MS/MS.

IC50 [1] | SMILES | further results
0.5 to 2 nM | COc1ccc2c(c1S(=O)(=O)Nc1noc3cc(Cn4cccn4)c(F)c(OC)c13)OCCC21CCC1 [Compound 72, N-(6-((1H-Pyrazol-1-yl)methyl)-5-fluoro-4-methoxybenzo[d]isoxazol-3-yl)-7-methoxyspiro[chromane-4,1′-cyclobutane]-8-sulfonamide] | –
< 0.5 nM | COc1ccc2c(c1S(=O)(=O)Nc1noc3cc(Cn4cccn4)c(F)c(OC)c13)OCCC2(F)F [Compound 104, N-(6-((1H-Pyrazol-1-yl)methyl)-5-fluoro-4-methoxybenzo[d]isoxazol-3-yl)-4,4-difluoro-7-methoxychromane-8-sulfonamide] | AUC(0-inf) ([2]; iv, i.v. 1 mg/kg): 4200 ng·h/mL; clearance ([2]; iv, i.v. 1 mg/kg, read-out: CL (clearance rate)): 3.98 mL/min/kg; half-life ([2]; iv, i.v. 1 mg/kg): 2.83 h; Vd ([2]; iv, i.v. 1 mg/kg, read-out: Vdss (apparent volume of distribution)): 0.705 L/kg; AUC(0-inf) ([2]; po, p.o. 2 mg/kg): 6110 ng·h/mL; bioavailability ([2]; po, p.o. 2 mg/kg, read-out: F (bioavailability)): 72.7%; half-life ([2]; po, p.o. 2 mg/kg): 2.13 h
< 0.5 nM | COc1ccc2c(c1S(=O)(=O)Nc1noc3cc(Cn4cccn4)c(F)c(OC)c13)OCC=C2C [Compound 106, N-(6-((1H-Pyrazol-1-yl)methyl)-5-fluoro-4-methoxybenzo[d]isoxazol-3-yl)-7-methoxy-4-methyl-2H-chromene-8-sulfonamide] | –
0.5 to 2 nM | COc1ccc2c(c1S(=O)(=O)Nc1noc3cc(Cn4cccn4)c(F)c(OC)c13)OCCC2O (stereo not drawn) [Compound 107, N-(6-((1H-Pyrazol-1-yl)methyl)-5-fluoro-4-methoxybenzo[d]isoxazol-3-yl)-4-hydroxy-7-methoxychromane-8-sulfonamide] | –
< 0.5 nM | COc1ccc2c(c1S(=O)(=O)Nc1noc3cc(Cn4cccn4)c(F)c(OC)c13)OCCN2 [Compound 111, N-(6-((1H-Pyrazol-1-yl)methyl)-5-fluoro-4-methoxybenzo[d]isoxazol-3-yl)-7-methoxy-3,4-dihydro-2H-benzo[b][1,4]oxazine-8-sulfonamide] | –
2 to 10 nM | COc1ccc2c(c1S(=O)(=O)Nc1noc3cc(Cn4cccn4)c(F)c(OC)c13)OCCN2CC(F)(F)F [Compound 120, N-(6-((1H-Pyrazol-1-yl)methyl)-5-fluoro-4-methoxybenzo[d]isoxazol-3-yl)-7-methoxy-4-(2,2,2-trifluoroethyl)-3,4-dihydro-2/-benzo[b][1,4]oxazine-8-sulfonamide] | –
0.5 to 2 nM | COc1cccc(OC)c1S(=O)(=O)Nc1noc2cc(Cn3cccn3)c(F)c(OC)c12 [PF-0128, reference compound] | –
0.5 to 2 nM | COc1cccc(OC)c1S(=O)(=O)Nc1noc2cc(Cn3cccn3)cc(OC)c12 [PF-9363, reference compound] | –

Second part, the compound before the results:

SMILES | IC50 [1] | further results
COc1ccc2c(c1S(=O)(=O)Nc1noc3cc(Cn4cccn4)c(F)c(OC)c13)OCCC21CCCC1 [Compound 73, N-(6-((1H-Pyrazol-1-yl)methyl)-5-fluoro-4-methoxybenzo[d]isoxazol-3-yl)-7-methoxyspiro[chromane-4,1′-cyclopentane]-8-sulfonamide] | 0.5 to 2 nM | –
COc1ccc2c(c1S(=O)(=O)Nc1noc3cc(Cn4cccn4)cc(OC)c13)OCCC2(F)F [Compound 102, N-(6-((1H-Pyrazol-1-yl)methyl)-4-methoxybenzo[d]isoxazol-3-yl)-4,4-difluoro-7-methoxychromane-8-sulfonamide] | 0.5 to 2 nM | –
COc1cc(Cn2cccn2)cc2onc(NS(=O)(=O)c3c(F)ccc4c3OCCC4(F)F)c12 [Compound 103, N-(6-((1H-Pyrazol-1-yl)methyl)-4-methoxybenzo[d]isoxazol-3-yl)-4,4,7-trifluorochromane-8-sulfonamide] | 10 to 50 nM | –
COc1c(F)c(Cn2cccn2)cc2onc(NS(=O)(=O)c3c(F)ccc4c3OCCC4(F)F)c12 [Compound 105, N-(6-((1H-Pyrazol-1-yl)methyl)-5-fluoro-4-methoxybenzo[d]isoxazol-3-yl)-4,4,7-trifluorochromane-8-sulfonamide] | 10 to 50 nM | –
COc1c(F)c(Cn2cccn2)cc2onc(NS(=O)(=O)c3ccccc3OC3CCC3)c12 [Compound 108, N-(6-((1H-Pyrazol-1-yl)methyl)-5-fluoro-4-methoxybenzo[d]isoxazol-3-yl)-2-cyclobutoxybenzenesulfonamide] | 0.5 to 2 nM | –
COc1ccc2c(c1S(=O)(=O)Nc1noc3cc(Cn4cccn4)c(F)c(OC)c13)OCCN2Cc1ccccc1 [Compound 112, N-(6-((1H-Pyrazol-1-yl)methyl)-5-fluoro-4-methoxybenzo[d]isoxazol-3-yl)-4-benzyl-7-methoxy-3,4-dihydro-2H-benzo[b][1,4]oxazine-8-sulfonamide] | 2 to 10 nM | –
